Like-named read-outs stand apart in the source and are kept apart here.
Columns and labels:
[1] = tested on: Dipeptidyl Peptidase I (DP I, Cathepsin C); assay: Cross reacting enzymes - dipeptidyl peptidase I; assay type: biochemical; conditions: concentration range 1*10^−5 M-1*10^−7M; MES buffer pH5.6
Protocol: DP I or cathepsin C is a lysosomal cysteine protease which cleaves off dipeptides from the N-terminus of their substrates (Gutman, H. R. & Fruton, J. S., 1948, J. Biol: Chem., 174, 851-858). It is classified as a cysteine protease. The enzyme used was purchased from Qiagen (Qiagen GmbH, Hilden, Germany). In order to get a fully active enzyme, the enzyme was diluted 1000 fold in MES buffer pH5.6 (40 mM MES, 4 mM DTT, 4 mM KCl, 2 mM EDTA, 0.015% Brij) and pre-incubated for 30 min at 30° C.
50 μl glutaminyl pyrrolidine or glutaminyl thiazolidine in a concentration range of 1*10^−5 M-1*10^−7M were admixed with 110 μl buffer-enzyme-mixture. The assay mixture was pre-incubated at 30° C. for 15 min. After pre-incubation, 100 μl histidylseryl-[…]-nitroaniline (2*10^−5M) was added and measurement of yellow color development due to β-nitroaniline release was performed at 30° C. and […] for 10 min., using a plate reader (HTS7000 plus, Applied Biosystems, Weiterstadt, Germany).
The IC50-values were calculated using Graphit 4.0.15 (Erithacus Software, Ltd., UK).

diabetic Zucker rats = assay: Dose escalation study in fatty Zucker rats, oral glucose tolerance test; assay type: in vivo, rat; conditions: 2 g/kg glucose
Protocol: N=30 male Zucker rats (fa/fa), mean age 11 weeks (5-12 weeks), mean body weight 350 g (150-400 g), were purchased from Charles River (Sulzfeld, Germany).
After delivery they were kept for >12 weeks until nearly all fatty Zucker rats had the characteristics of manifest diabetes mellitus. A group of N=8 animals were recruited for testing three escalating doses of glutaminyl pyrrolidine vs. placebo (saline).
Placebo (1 ml saline, 0.154 mol/l) or escalating doses of glutaminyl pyrrolidine (5, 15 and 50 mg/kg b.w.) were administered to groups of N=8 fatty Zucker rats. 375 mg of glutaminyl pyrrolidine were dissolved in 1000 μl DMSO (E. Merck, Darmstadt; Germany [Dimethyl sulfoxide p.a.]). 10 ml saline were added and 1 ml aliquots, each containing 34.09 mg of glutaminyl pyrrolidine, were stored at −20° C. For preparation of the test substance, dose dependent aliquots were diluted in saline.
After overnight fasting, placebo or test substance were administered to the fatty Zucker rats via feeding tube orally (15 G, 75 mm; Fine Science Tools, Heidelberg, Germany) at −10 min An oral glucose tolerance test (OGTT) with 2 g/kg b.w. glucose (40% solution, B. Braun Melsungen, Melsungen, Germany) was administered at ±0 min via a second feeding tube. Venous blood samples from the tail veins were collected at −30 min, −15 min, ±0 min and at 5, 10, 15, 20, 30, 40, 60, 90 and 120 min into 20 μl glass capillaries, which were placed in standard tubes filled with 1 ml solution for blood glucose measurement.
Glucose levels were measured using the glucose oxidase procedure (Super G Glucose analyzer; Dr. Müller Gerätebau, Freital, Germany).
Statistical evaluations and graphics were performed with PRISM® 3.02 (GraphPad Software, Inc.). All parameters were analysed in a descriptive manner including mean and SD.
After delivery they were kept for >12 weeks until nearly all fatty Zucker rats had the characteristics of manifest diabetes mellitus. […]
Glucose levels were measured using the glucose oxidase procedure (Super G Glucose analyzer; Dr. Möller Gerätebau, Freital, Germany).

plasma DPIV activity = molecular target: T1, plasma DPIV activity (Rattus norvegicus, UniProt P14740); assay: DPIV inhibiting activity after intravasal and oral administration to Wistar rats; assay type: in vivo; conditions: rat
T1 construct: from tissue; host or cells: plasma of Wistar rats
T1 sequence (P14740 38-767 limits assumed): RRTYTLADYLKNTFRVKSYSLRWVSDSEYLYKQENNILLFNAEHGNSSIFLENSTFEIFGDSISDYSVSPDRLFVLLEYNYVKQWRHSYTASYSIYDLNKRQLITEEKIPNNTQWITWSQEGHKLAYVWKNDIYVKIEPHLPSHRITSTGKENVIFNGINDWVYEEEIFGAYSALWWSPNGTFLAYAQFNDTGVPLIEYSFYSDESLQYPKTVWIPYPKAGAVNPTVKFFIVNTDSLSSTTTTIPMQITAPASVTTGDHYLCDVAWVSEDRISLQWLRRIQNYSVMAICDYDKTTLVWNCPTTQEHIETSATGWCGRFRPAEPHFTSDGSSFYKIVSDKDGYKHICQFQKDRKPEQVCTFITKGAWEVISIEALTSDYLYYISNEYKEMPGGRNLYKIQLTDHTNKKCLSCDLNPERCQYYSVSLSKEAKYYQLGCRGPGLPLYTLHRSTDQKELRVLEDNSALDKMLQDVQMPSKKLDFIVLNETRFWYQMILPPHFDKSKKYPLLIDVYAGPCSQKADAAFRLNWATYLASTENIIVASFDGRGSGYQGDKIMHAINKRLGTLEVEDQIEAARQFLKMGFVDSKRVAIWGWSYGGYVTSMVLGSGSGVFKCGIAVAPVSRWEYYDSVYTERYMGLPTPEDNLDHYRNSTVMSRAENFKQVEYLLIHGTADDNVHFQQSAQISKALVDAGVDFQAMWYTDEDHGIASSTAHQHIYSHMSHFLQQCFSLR
Protocol: Male Wistar rats (Shoe: Wist(Sho)) with a body weight ranging between 250 and 350 g were purchased from Tierzucht Schönwalde (Schönwalde, Germany).
Animals were single-caged under conventional conditions with controlled temperature (22±2° C.) on a 12/12 hours light/dark cycle (light on at 06:00 AM). Standard pelleted chow (ssniff® Soest, Germany) and tap water acidified with HCl were allowed ad libitum.
After ≧one week of adaptation at the housing conditions, catheters were implanted into the carotid artery of Wistar rats under general anaesthesia (i.p. injection of 0.25 ml/kg b.w. Rompun® [2%], BayerVital, Germany and 0.5 ml/kg b.w. Ketamin 10, Atarost GmbH & Co., Twistringen, Germany). The animals were allowed to recover for one week. The catheters were flushed with heparin-saline (100 IU/ml) three times per week. In case of catheter dysfunction, a second catheter was inserted into the contra-lateral carotid artery of the respective rat. After one week of recovery from surgery, this animal was reintegrated into the study. In case of dysfunction of the second catheter, the animal was withdrawn from the study. A new animal was recruited and the experiments were continued in the planned sequence, beginning at least 7 days after catheter implantation.
After overnight fasting, 100 μl samples of heparinised arterial blood were collected at −30, −5, and 0 min. […] In the case of oral administration, an additional volume of 1 ml saline was injected into the arterial catheter. In the case of infra-arterial administration, the catheter was immediately flushed with 30 μl saline and an additional 1 ml of saline was given orally via the feeding tube.
All blood samples were collected into ice cooled Eppendorf tubes (Eppendorf-Netheler-Hinz, Hamburg, Germany) filled with 10 μl 1M sodium citrate buffer (pH 3.0) for plasma DPIV activity measurement. Eppendorf tubes were centrifuged immediately (12000 rpm for 2 min, Hettich Zentrifuge EBA 12, Tuttlingen; Germany): The plasma fractions were stored on ice until analysis or were frozen at −20° C. until analysis. All plasma samples were labelled with the following data:
The assay mixture for determination of plasma DPIV activity consisted of 80 μl reagent and 20 μl plasma sample. […] The DPIV activity was expressed in mU/ml.
All parameters were analysed in a descriptive manner including mean and SD.

inhibition of DP I enzyme activity [1]: No inhibition
inhibition at 100 mg/kg (plasma DPIV activity; iv, intra-vasal (intra-arterial) route, read-out: in vivo DPIV-inhibition at tmax, i.v.): 80%
inhibition at 100 mg/kg (plasma DPIV activity; oral, read-out: in vivo DPIV-inhibition at tmax, p.o.): 67%
Compound: NC(=O)CCC(N)C(=O)N1CCCC1 (stereo not drawn) [Gln-Pyrr, glutaminyl pyrrolidine]
glucose tolerance (OGTT) (diabetic Zucker rats; 5 mg/kg b.w. oral): limited improvement
elevated blood glucose levels and glucose tolerance (OGTT) (diabetic Zucker rats; 15 mg/kg oral): Significant lowering
elevated blood glucose levels and glucose tolerance (OGTT) (diabetic Zucker rats; 50 mg/kg b.w. oral): Significant lowering

Source: US20070207946A1, “Dipeptidyl peptidase IV inhibitors and their uses for lowering blood pressure levels” (priority 2001, published 2007)
